Assay results published in patent publication US10662205B2, “Cyclic boronic acid ester derivatives and therapeutic uses thereof” (priority 2014, dated 2020).
Where two headings read alike, the source gives them in different places.

Key:
[1] = tested on: KP1005 (CTX-M-14); assay: Aztreonam potentiation (MPC@4); assay type: cell-based; settings: aztreonam 4 μg/mL
[2] = tested on: KP1009 (CTX-M-15); assay: Aztreonam potentiation (MPC@4); assay type: cell-based; settings: aztreonam 4 μg/mL
[3] = tested on: ec308 (SHV-5); assay: Aztreonam potentiation (MPC@4); assay type: cell-based; settings: aztreonam 4 μg/mL
[4] = tested on: KP1010 (SHV-12); assay: Aztreonam potentiation (MPC@4); assay type: cell-based; settings: aztreonam 4 μg/mL
[5] = tested on: KP1004 (KPC-2); assay: Aztreonam potentiation (MPC@4); assay type: cell-based; settings: aztreonam 4 μg/mL
[6] = tested on: ECL1002; assay: Aztreonam potentiation (MPC@4); assay type: cell-based; settings: aztreonam 4 μg/mL
[7] = tested on: EC1010 (CMY-6); assay: Aztreonam potentiation (MPC@4); assay type: cell-based; settings: aztreonam 4 μg/mL
[8] = tested on: KP1005 (CTX-M-14); assay: Tigemonam potentiation (MPC@4); assay type: cell-based; settings: tigemonam 4 μg/mL
[9] = tested on: KP1009 (CTX-M-15); assay: Tigemonam potentiation (MPC@4); assay type: cell-based
[10] = tested on: ec308 (SHV-5); assay: Tigemonam potentiation (MPC@4); assay type: cell-based; settings: tigemonam 4 μg/mL
[11] = tested on: KP1010 (SHV-12); assay: Tigemonam potentiation (MPC@4); assay type: cell-based
[12] = tested on: ec302 (TEM-10); assay: Tigemonam potentiation (MPC@4); assay type: cell-based; settings: tigemonam 4 μg/mL
[13] = tested on: ECL1002; assay: Tigemonam potentiation (MPC@4); assay type: cell-based; settings: tigemonam 4 μg/mL
[14] = tested on: EC1010 (CMY-6); assay: Tigemonam potentiation (MPC@4); assay type: cell-based; settings: tigemonam 4 μg/mL; EC1010, CMY-6
[15] = molecular target: CTX-M-14 (Escherichia coli, UniProt Q9L5C7); assay: Inhibition of nitrocefin cleavage by purified enzyme (Ki); assay type: biochemical; settings: nitrocefin reporter substrate; 10 min preincubation; read-out: Ki CTX-M-14, NCF
CTX-M-14, sequence (Q9L5C7 29-291): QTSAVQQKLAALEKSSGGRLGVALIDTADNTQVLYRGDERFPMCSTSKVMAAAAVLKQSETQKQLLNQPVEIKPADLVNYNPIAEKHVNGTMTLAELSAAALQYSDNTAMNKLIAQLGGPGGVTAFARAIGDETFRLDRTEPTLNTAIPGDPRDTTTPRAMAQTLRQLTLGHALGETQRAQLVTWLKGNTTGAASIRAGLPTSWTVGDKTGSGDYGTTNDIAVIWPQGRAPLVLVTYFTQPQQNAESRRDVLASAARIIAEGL
Procedure: (§1) Ki values of inhibition of purified class A, C and D enzymes were determined spectrophotometrically using nitrocefin as reporter substrate. Purified enzymes were mixed with various concentrations of inhibitors in reaction buffer and incubated for 10 min at room temperature. Nitrocefin was added and substrate cleavage profiles were recorded at 490 nm every 10 sec for 10 min.

[16] = molecular target: SHV-12 (Klebsiella pneumoniae, UniProt P0AD64, E235K/G234S/L31Q); assay: as above; assay type: biochemical
SHV-12, sequence (P0AD64 22-286 L31Q/G234S/E235K): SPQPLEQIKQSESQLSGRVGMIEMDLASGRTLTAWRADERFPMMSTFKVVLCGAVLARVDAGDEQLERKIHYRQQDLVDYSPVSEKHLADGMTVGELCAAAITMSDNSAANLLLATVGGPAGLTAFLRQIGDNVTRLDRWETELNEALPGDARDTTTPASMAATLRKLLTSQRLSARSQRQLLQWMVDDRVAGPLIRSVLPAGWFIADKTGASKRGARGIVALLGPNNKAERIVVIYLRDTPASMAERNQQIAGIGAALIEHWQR
Procedure: as §1

[17] = molecular target: CMY-2 (Klebsiella pneumoniae, UniProt Q48434); assay: as above; assay type: biochemical; settings: nitrocefin reporter substrate; 10 min preincubation; read-out: Ki CMY-2, NCF
CMY-2, sequence (Q48434 21-381, species assumed): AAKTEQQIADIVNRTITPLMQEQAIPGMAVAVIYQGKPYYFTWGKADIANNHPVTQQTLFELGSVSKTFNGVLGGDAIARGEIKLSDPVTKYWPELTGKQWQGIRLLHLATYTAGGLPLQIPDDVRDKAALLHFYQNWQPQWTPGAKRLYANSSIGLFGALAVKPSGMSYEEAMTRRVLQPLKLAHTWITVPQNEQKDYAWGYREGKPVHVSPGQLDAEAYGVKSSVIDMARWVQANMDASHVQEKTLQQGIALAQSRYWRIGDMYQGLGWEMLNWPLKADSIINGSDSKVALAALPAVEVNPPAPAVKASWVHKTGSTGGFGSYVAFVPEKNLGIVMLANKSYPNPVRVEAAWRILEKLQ
Procedure: as §1, with “min. These experiments confirmed that the described compounds are inhibitors with a broad-spectrum of activity towards various β-lactamases.” for “min.”

[18] = molecular target: KPC-2 (Klebsiella pneumoniae, UniProt Q9F663); assay: as above; assay type: biochemical; settings: nitrocefin reporter substrate; 10 min preincubation; read-out: Ki KPC-2, NCF
KPC-2, sequence (Q9F663 25-293, looked up, species assumed): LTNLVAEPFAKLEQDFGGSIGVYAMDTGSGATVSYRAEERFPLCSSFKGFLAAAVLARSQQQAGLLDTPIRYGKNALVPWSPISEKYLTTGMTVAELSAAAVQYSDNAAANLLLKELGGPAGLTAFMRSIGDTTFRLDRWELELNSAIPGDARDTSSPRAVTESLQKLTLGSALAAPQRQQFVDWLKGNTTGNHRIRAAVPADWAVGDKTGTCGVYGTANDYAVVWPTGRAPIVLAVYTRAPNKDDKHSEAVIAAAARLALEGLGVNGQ
Procedure: as §1, with “min. These experiments confirmed that the described compounds are inhibitors with a broad-spectrum of activity towards various β-lactamases.” for “min.”

[19] = molecular target: OXA-48 (Klebsiella pneumoniae, UniProt Q6XEC0); assay: as above; assay type: biochemical; settings: nitrocefin reporter substrate; 10 min preincubation; read-out: Ki OXA-48, NCF
OXA-48, sequence (Q6XEC0 23-265, looked up, species assumed): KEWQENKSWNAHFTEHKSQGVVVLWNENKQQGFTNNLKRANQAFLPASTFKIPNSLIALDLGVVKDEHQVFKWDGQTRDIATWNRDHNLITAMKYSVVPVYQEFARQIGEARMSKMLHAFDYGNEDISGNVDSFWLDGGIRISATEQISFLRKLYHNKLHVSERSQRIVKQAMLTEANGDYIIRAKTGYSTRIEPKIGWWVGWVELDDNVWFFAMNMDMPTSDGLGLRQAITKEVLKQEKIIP
Procedure: as §1, with “min. These experiments confirmed that the described compounds are inhibitors with a broad-spectrum of activity towards various β-lactamases.” for “min.”

[20] = molecular target: P99 (Enterobacter cloacae, UniProt P05364); assay: biochemical; settings: nitrocefin reporter substrate; 10 min preincubation; read-out: Ki P99, NCF
P99, sequence (P05364 21-381): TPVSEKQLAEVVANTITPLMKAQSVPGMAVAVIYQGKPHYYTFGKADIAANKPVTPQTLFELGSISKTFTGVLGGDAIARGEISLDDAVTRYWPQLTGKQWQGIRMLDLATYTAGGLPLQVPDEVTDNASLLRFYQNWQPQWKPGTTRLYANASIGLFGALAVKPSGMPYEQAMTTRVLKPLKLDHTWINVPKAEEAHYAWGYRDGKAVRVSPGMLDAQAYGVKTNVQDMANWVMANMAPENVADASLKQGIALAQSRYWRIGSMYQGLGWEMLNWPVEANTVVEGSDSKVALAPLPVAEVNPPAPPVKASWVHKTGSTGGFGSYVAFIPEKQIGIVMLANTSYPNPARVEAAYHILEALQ
Procedure: as §1

[21] = tested on: PAM1032/KPC-2; assay: Biapenem potentiation MPC64, efflux proficient strain; assay type: cell-based, Pseudomonas aeruginosa; set-up: unit not given here; settings: efflux proficient (MexAB-OprM overexpressed); decrease biapenem MIC 64-fold, 32 to 0.5 μg/ml
Procedure: (§2) Efflux of BLIs from Pseudomonas aeruginosa by the MexAB-OprM efflux pump was also evaluated. The plasmid expressing the gene encoding KPC-2 was introduced into two strains of P. aeruginosa, PAM1032 and PAM1154 that overexpressed or lacked MexAB-OprM, respectively. Due to expression of KPC-2 both strains became resistant to biapenem. […] Potency of BLIs to potentiate biapenem in these strains was determined. […] The ratio of MPC64 values for each BLI in PAM1032/KPC-2 (efflux proficient) and PAM1154/KPC-2 (efflux deficient) was determined to generate the Efflux Index (EI).

[22] = tested on: PAM1154/KPC-2; assay: Biapenem potentiation MPC64, efflux deficient strain; assay type: cell-based, Pseudomonas aeruginosa; set-up: unit not given here; settings: efflux deficient (lacks MexAB-OprM); decrease biapenem MIC 64-fold, 32 to 0.5 μg/ml
Procedure: as §2

[23] = Oral pharmacokinetics; assay type: in vivo; settings: rat, plasma, rats, n=3, read-out: Range of % Oral Bioavailability
Procedure: Several compounds were tested for their oral pharmacokinetics. Rats (n=3 per compound) were administered a single oral dose. Oral doses were administered as a bolus. Plasma (˜0.3 mL) samples were collected from each rat at designated time points up to 24 hours. Blood samples were centrifuged within 5 min of collection at 12000 g for 5 min to obtain plasma. The plasma samples were stored at −80° C. until analyzed. Data were analyzed using WinNonlin.

[24] = tested on: KP1004 (KPC-2); assay: Biapenem potentiation (MPC@1); settings: biapenem 1 μg/mL
[25] = tested on: KP1086 (OXA-48); assay: Biapenem potentiation (MPC@1); settings: biapenem 1 μg/mL
[26] = tested on: ec302 (TEM-10); assay: Aztreonam potentiation (MPC@4); assay type: cell-based; settings: aztreonam 4 μg/mL

Compound: Cn1cnnc1SCC(=O)N[C@H]1CC=C[C@@H]2CC(=O)OB1O2 [Compound 5, 2-(4-METHYL-4H-1,2,4-TRIAZOL-3-YLTHIO)-N-((2R,6S)-8-OXO-9,10-DIOXA-1-BORABICYCLO[4.3.1]DEC-4-EN-2-YL)ACETAMIDE]
- MPC@4 aztreonam potentiation [1]: X (X = MPC@4 ≤ 5 μg/mL)
- MPC@4 aztreonam potentiation [2]: X (X = MPC@4 ≤ 5 μg/mL)
- MPC@4 aztreonam potentiation [3]: X (X = MPC@4 ≤ 5 μg/mL)
- MPC@4 aztreonam potentiation [4]: X (X = MPC@4 ≤ 5 μg/mL)
- MPC@4 aztreonam potentiation [5]: Y (Y = 5 μg/mL < MPC@4 ≤ 20 μg/mL)
- MPC@4 aztreonam potentiation [6]: X (X = MPC@4 ≤ 5 μg/mL)
- MPC@4 aztreonam potentiation [7]: X (X = MPC@4 ≤ 5 μg/mL)
- MPC@4 tigemonam potentiation [8]: X (X = MPC@4 ≤ 5 μg/mL)
- MPC@4 tigemonam potentiation [9]: X (key: X = MPC@4 ≤ 5 μg/mL; Y = 5 μg/mL < MPC@4 ≤ 20 μg/mL; Z = MPC@4 > 20 μg/mL)
- MPC@4 tigemonam potentiation [10]: X (X = MPC@4 ≤ 5 μg/mL)
- MPC@4 tigemonam potentiation [11]: X (key: X = MPC@4 ≤ 5 μg/mL; Y = 5 μg/mL < MPC@4 ≤ 20 μg/mL; Z = MPC@4 > 20 μg/mL)
- MPC@4 tigemonam potentiation [12]: Z (Z = MPC@4 > 20 μg/mL)
- MPC@4 tigemonam potentiation [13]: X (X = MPC@4 ≤ 5 μg/mL)
- MPC@4 tigemonam potentiation [14]: X (X = MPC@4 ≤ 5 μg/mL)
- Ki [15]: < 100 nM
- Ki [16]: < 100 nM
- Ki [17]: < 100 nM
- Ki [18]: 100 to 1000 nM
- Ki [19]: 100 to 1000 nM
- Ki [20]: < 100 nM
- PAM1032/KPC-2 Biapenem MPC64 [21]: 80
- PAM1154/KPC-2 Biapenem MPC64 [22]: 20
- bioavailability ([23]; single oral dose 50 mg/kg): 2.5 to 3%
- MPC@1 biapenem potentiation [24]: X (X = MPC@1 ≤ 5 μg/mL)
- MPC@1 biapenem potentiation [25]: Z (Z = MPC@1 > 20 μg/mL)

Compound: O=C(CSC(F)F)N[C@H]1CC=C[C@@H]2CC(=O)OB1O2 [Compound 3, 2-(DIFLUOROMETHYLTHIO)-N-((2R,6S)-8-OXO-9,10-DIOXA-1-BORABICYCLO[4.3.1]DEC-4-EN-2-YL)ACETAMIDE]
- MPC@4 aztreonam potentiation [1]: X (X = MPC@4 ≤ 5 μg/mL)
- MPC@4 aztreonam potentiation [2]: X (X = MPC@4 ≤ 5 μg/mL)
- MPC@4 aztreonam potentiation [3]: X (X = MPC@4 ≤ 5 μg/mL)
- MPC@4 aztreonam potentiation [4]: X (X = MPC@4 ≤ 5 μg/mL)
- MPC@4 aztreonam potentiation [26]: X (X = MPC@4 ≤ 5 μg/mL)
- MPC@4 aztreonam potentiation [5]: X (X = MPC@4 ≤ 5 μg/mL)
- MPC@4 aztreonam potentiation [6]: X (X = MPC@4 ≤ 5 μg/mL)
- MPC@4 aztreonam potentiation [7]: X (X = MPC@4 ≤ 5 μg/mL)
- MPC@4 tigemonam potentiation [8]: X (X = MPC@4 ≤ 5 μg/mL)
- MPC@4 tigemonam potentiation [9]: X (key: X = MPC@4 ≤ 5 μg/mL; Y = 5 μg/mL < MPC@4 ≤ 20 μg/mL; Z = MPC@4 > 20 μg/mL)
- MPC@4 tigemonam potentiation [10]: X (X = MPC@4 ≤ 5 μg/mL)
- MPC@4 tigemonam potentiation [11]: X (key: X = MPC@4 ≤ 5 μg/mL; Y = 5 μg/mL < MPC@4 ≤ 20 μg/mL; Z = MPC@4 > 20 μg/mL)
- MPC@4 tigemonam potentiation [12]: Y (Y = 5 μg/mL < MPC@4 ≤ 20 μg/mL)
- MPC@4 tigemonam potentiation [13]: X (X = MPC@4 ≤ 5 μg/mL)
- MPC@4 tigemonam potentiation [14]: X (X = MPC@4 ≤ 5 μg/mL)
- Ki [15]: < 100 nM
- Ki [16]: < 100 nM
- Ki [18]: 100 to 1000 nM
- Ki [19]: < 100 nM
- Ki [20]: < 100 nM
- PAM1032/KPC-2 Biapenem MPC64 [21]: >80
- PAM1154/KPC-2 Biapenem MPC64 [22]: 5
- bioavailability ([23]; single oral dose 30 mg/kg): 28 to 54%
- MPC@1 biapenem potentiation [24]: X (X = MPC@1 ≤ 5 μg/mL)
- MPC@1 biapenem potentiation [25]: Z (Z = MPC@1 > 20 μg/mL)
